Measured values as given in patent publication US10689367B2, “Triazole pyridyl compounds as agonists of the APJ receptor” (AMGEN INC., priority 2016, dated 2020).
pEC50: −log10 of the molar value.

Target: human APJ receptor (Homo sapiens (Human), UniProt P35414)
Experiment: [35S]GTPγS binding assay on membranes from CHO cells stably expressing human APJ receptor
Format: biochemical
Conditions: membranes of CHO cells stably expressing human APJ receptor, read-out: Activity hAPJ SPA EC50 IP
Protocol: The human APJ receptor was cloned by polymerase chain reaction and the gene encoding the receptor was subcloned in pFLAG-CMV™-3 expression vector (Sigma, Saint Louis, Mo. USA) in-house at Amgen. A GTPγS binding assay was performed on membranes prepared from CHO cells stably expressing human APJ receptor. The optimum experimental conditions for the concentrations of GDP, MgCl2, and NaCl in the assay buffer were initially determined. […] Incubation was at RT for 90 min and the microplate was read using a ViewLux™ ultra HTS Microplate Imager (PerkinElmer, Inc.). All the results presented are means of several independent experiments and analyzed by non-linear regression methods using the commercially available program Prism (GraphPad, San Diego, Calif.) providing the EC50 values detailed in Table 27.

Sequence of human APJ receptor (P35414 whole entry): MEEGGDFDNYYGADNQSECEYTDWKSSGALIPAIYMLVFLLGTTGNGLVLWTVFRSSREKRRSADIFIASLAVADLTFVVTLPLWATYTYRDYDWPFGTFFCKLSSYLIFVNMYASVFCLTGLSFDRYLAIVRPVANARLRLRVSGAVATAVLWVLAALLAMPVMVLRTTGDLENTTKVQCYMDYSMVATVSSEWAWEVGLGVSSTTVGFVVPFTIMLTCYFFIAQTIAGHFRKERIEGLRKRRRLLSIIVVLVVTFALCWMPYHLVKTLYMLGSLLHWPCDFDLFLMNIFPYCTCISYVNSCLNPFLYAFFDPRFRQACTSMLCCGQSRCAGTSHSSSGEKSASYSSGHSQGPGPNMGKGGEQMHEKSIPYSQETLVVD

SMILES	pEC50
COc1cccc(-c2nnc(NS(=O)(=O)[C@@H](C)[C@H](OC)c3ncc(Cl)cn3)n2[C@H](C)c2cncnc2)n1 (single isomer, unassigned) [Example 337.0, (1R,2S)-1-(5-chloropyrimidin-2-yl)-1-methoxy-N-(5-(6-methoxypyridin-2-yl)-4-((R)-1-(pyrimidin-5-yl)ethyl)-4H-1,2,4-triazol-3-yl)propane-2-sulfonamide or (1R,2S)-1-(5-chloropyrimidin-2-yl)-1-methoxy-N-(5-(6-methoxypyridin-2-yl)-4-((S)-1-(pyrimidin-5-yl)ethyl)-4H-1,2,4-triazol-3-yl)propane-2-sulfonamide]	8.85
COCC(COC)n1c(NS(=O)(=O)[C@@H](C)[C@@H](OC(C)C)c2ncc(OC)cn2)nnc1-c1cccc(OC)n1 [Example 172.0, (1S,2S)-N-(4-(1,3-dimethoxy-2-propanyl)-5-(6-methoxy-2-pyridinyl)-4H-1,2,4-triazol-3-yl)-1-(5-methoxy-2-pyrimidinyl)-1-(2-propanyloxy)-2-propanesulfonamide]	8.85
COCCn1c(NS(=O)(=O)[C@@H](C)[C@@H](OC(C)C)c2ncc(Cl)cn2)nnc1-c1ccccn1 [Example 23.0, (1S,2S)-1-(5-chloro-2-pyrimidinyl)-N-(4-(2-methoxyethyl)-5-(2-pyridinyl)-4H-1,2,4-triazol-3-yl)-1-(2-propanyloxy)-2-propanesulfonamide]	7.82
COc1cccc(-c2nnc(NS(=O)(=O)[C@@H](C)[C@H](OC)c3ncc(Cl)cn3)n2[C@@H](C)c2c(C)noc2C)n1 (racemic) [Example 309.0, (1R,2S)-1-(5-chloropyrimidin-2-yl)-N-(4-((R)-1-(3,5-dimethylisoxazol-4-yl)ethyl)-5-(6-methoxypyridin-2-yl)-4H-1,2,4-triazol-3-yl)-1-methoxypropane-2-sulfonamide or (1R,2S)-1-(5-chloropyrimidin-2-yl)-N-(4-((S)-1-(3,5-dimethylisoxazol-4-yl)ethyl)-5-(6-methoxypyridin-2-yl)-4H-1,2,4-triazol-3-yl)-1-methoxypropane-2-sulfonamide]	8.04
CCc1cc(Cn2c(NS(=O)(=O)[C@@H](C)[C@H](OC)c3ncc(Cl)cn3)nnc2-c2cccc(OC)n2)on1 [Example 292.0, (1R,2S)-1-(5-Chloropyrimidin-2-yl)-N-(4-((3-ethylisoxazol-5-yl)methyl)-5-(6-methoxypyridin-2-yl)-4H-1,2,4-triazol-3-yl)-1-methoxypropane-2-sulfonamide]	8.62
COCC(COC)n1c(NS(=O)(=O)[C@@H](C)[C@H](C)c2ncc(OC)cn2)nnc1-c1cccc(OC)n1 [Example 99.0]	8.38
COc1cccc(-c2nnc(NS(=O)(=O)[C@@H](C)[C@H](OC)c3ncc(Cl)cn3)n2C2CCCC2)n1 [Example 183.0, (1R,2S)-1-(5-chloro-2-pyrimidinyl)-N-(4-cyclopentyl-5-(6-methoxy-2-pyridinyl)-4H-1,2,4-triazol-3-yl)-1-methoxy-2-propanesulfonamide]	8.32
COCCn1c(NS(=O)(=O)[C@@H](C)[C@H](OC)c2ncc(Cl)cn2)nnc1-c1ccccn1 [Example 132.0]	6.82
COc1cccc(-c2nnc(NS(=O)(=O)[C@@H](C)[C@H](C)c3ncc(Cl)cn3)n2[C@@H](C)c2ccno2)n1 (single isomer, unassigned) [Example 215.0, (2S,3R)-3-(5-chloro-2-pyrimidinyl)-N-(5-(6-methoxy-2-pyridinyl)-4-((1R)-1-(1,2-oxazol-5-yl)ethyl)-4H-1,2,4-triazol-3-yl)-2-butanesulfonamide or (2S,3R)-3-(5-chloro-2-pyrimidinyl)-N-(5-(6-methoxy-2-pyridinyl)-4-((1S)-1-(1,2-oxazol-5-yl)ethyl)-4H-1,2,4-triazol-3-yl)-2-butanesulfonamide]	8.70
CCc1noc(C)c1Cn1c(NS(=O)(=O)[C@@H](C)[C@H](OC)c2ncc(Cl)cn2)nnc1-c1cccc(OC)n1 [Example 192.0, (1R,2S)-1-(5-chloro-2-pyrimidinyl)-N-(4-((3-ethyl-5-methyl-1,2-oxazol-4-yl)methyl)-5-(6-methoxy-2-pyridinyl)-4H-1,2,4-triazol-3-yl)-1-methoxy-2-propanesulfonamide]	6.59
COc1cccc(-c2nnc(NS(=O)(=O)[C@@H](C)[C@H](OC)c3ncc(Cl)cn3)n2C(C2CC2)C2CC2)n1 [Example 25.0, (1R,2S)-1-(5-chloro-2-pyrimidinyl)-N-(4-(dicyclopropylmethyl)-5-(6-methoxy-2-pyridinyl)-4H-1,2,4-triazol-3-yl)-1-methoxy-2-propanesulfonamide]	10.10
COc1cccc(-c2nnc(NS(=O)(=O)[C@@H](C)[C@H](OC)c3ncc(Cl)cn3)n2[C@H](C)[C@@H]2CCCCO2)n1 (racemic) [Example 319.0]	9.36
COc1cnc([C@@H](OC)[C@H](C)S(=O)(=O)Nc2nnc(-c3cccc(OC)n3)n2[C@H]2CC23CC3)cn1 (single isomer, unassigned) [Example 159.0, (1R,2S)-1-methoxy-1-(5-methoxypyrazin-2-yl)-N-(5-(6-methoxypyridin-2-yl)-4-((S)-spiro[2.2]pentan-1-yl)-4H-1,2,4-triazol-3-yl)propane-2-sulfonamide or (1R,2S)-1-methoxy-1-(5-methoxypyrazin-2-yl)-N-(5-(6-methoxypyridin-2-yl)-4-((R)-spiro[2.2]pentan-1-yl)-4H-1,2,4-triazol-3-yl)propane-2-sulfonamide]	6.26
COc1cccc(-c2nnc(NS(=O)(=O)[C@@H](C)[C@H](OC)c3ncc(Cl)cn3)n2CC[S@+](C)[O-])n1 (single isomer, unassigned) [Example 94.0]	6.00
COc1cccc(-c2nnc(NS(=O)(=O)[C@@H](C)[C@H](OC)c3ncc(Cl)cn3)n2C2CC3(COC3)C2)n1 [Example 7.0, (1R,2S)-1-(5-chloro-2-pyrimidinyl)-1-methoxy-N-(5-(6-methoxy-2-pyridinyl)-4-(2-oxaspiro[3.3]hept-6-yl)-4H-1,2,4-triazol-3-yl)-2-propanesulfonamide]	6.62
COc1cccc(-c2nnc(NS(=O)(=O)[C@@H](C)[C@H](OC)c3ncc(Cl)cn3)n2C[C@H]2CCC(C)(C)O2)n1 (single isomer, unassigned) [Example 290.0, (1R,2S)-1-(5-chloropyrimidin-2-yl)-N-(4-(((R)-5,5-dimethyltetrahydrofuran-2-yl)methyl)-5-(6-methoxypyridin-2-yl)-4H-1,2,4-triazol-3-yl)-1-methoxypropane-2-sulfonamide or (1R,2S)-1-(5-chloropyrimidin-2-yl)-N-(4-(((S)-5,5-dimethyltetrahydrofuran-2-yl)methyl)-5-(6-methoxypyridin-2-yl)-4H-1,2,4-triazol-3-yl)-1-methoxypropane-2-sulfonamide]	7.82
COc1cccc(-c2nnc(NS(=O)(=O)[C@@H](C)[C@@H](OC(C)C)c3ncc(C)cn3)n2[C@@H](C)c2nc(C)no2)n1 (single isomer, unassigned) [Example 240.0, (1S,2S)-N-(5-(6-methoxy-2-pyridinyl)-4-((1S)-1-(3-methyl-1,2,4-oxadiazol-5-yl)ethyl)-4H-1,2,4-triazol-3-yl)-1-(5-methyl-2-pyrimidinyl)-1-(2-propanyloxy)-2-propanesulfonamide or (1S,2S)-N-(5-(6-methoxy-2-pyridinyl)-4-((1R)-1-(3-methyl-1,2,4-oxadiazol-5-yl)ethyl)-4H-1,2,4-triazol-3-yl)-1-(5-methyl-2-pyrimidinyl)-1-(2-propanyloxy)-2-propanesulfonamide]	8.70
CC[C@H]([C@@H]1CCCCO1)n1c(NS(=O)(=O)[C@@H](C)[C@H](OC)c2ncc(C)cn2)nnc1-c1cccc(OC)n1 (single isomer, unassigned) [Example 332.0]	9.92
COc1cccc(-c2nnc(NS(=O)(=O)[C@@H](C)[C@H](OC)c3cnc(C)cn3)n2C2CC2)n1 [Example 122.0]	7.25
COc1cccc(-c2nnc(NS(=O)(=O)[C@@H](C)[C@H](OC)c3ncc(Cl)cn3)n2C[C@@H]2CCC[C@H](C)O2)n1 (single isomer, unassigned) [Example 305.0]	8.40
CC[C@H](c1c(C)noc1C)n1c(NS(=O)(=O)[C@@H](C)[C@H](OC)c2ncc(Cl)cn2)nnc1-c1cccc(OC)n1 (mixture of isomers) [Example 211.0, (1R,2S)-1-(5-chloro-2-pyrimidinyl)-N-(4-((1R)-1-(3,5-dimethyl-1,2-oxazol-4-yl)propyl)-5-(6-methoxy-2-pyridinyl)-4H-1,2,4-triazol-3-yl)-1-methoxy-2-propanesulfonamide and (1R,2S)-1-(5-chloro-2-pyrimidinyl)-N-(4-((1S)-1-(3,5-dimethyl-1,2-oxazol-4-yl)propyl)-5-(6-methoxy-2-pyridinyl)-4H-1,2,4-triazol-3-yl)-1-methoxy-2-propanesulfonamide]	8.74
COc1cccc(-c2nnc(NS(=O)(=O)[C@@H](C)[C@H](C)c3ncc(Cl)cn3)n2[C@@H](C)c2noc(C)n2)n1 (single isomer, unassigned) [Example 245.0, (2S,3R)-3-(5-chloro-2-pyrimidinyl)-N-(5-(6-methoxy-2-pyridinyl)-4-((1R)-1-(5-methyl-1,2,4-oxadiazol-3-yl)ethyl)-4H-1,2,4-triazol-3-yl)-2-butanesulfonamide or (2S,3R)-3-(5-chloro-2-pyrimidinyl)-N-(5-(6-methoxy-2-pyridinyl)-4-((1S)-1-(5-methyl-1,2,4-oxadiazol-3-yl)ethyl)-4H-1,2,4-triazol-3-yl)-2-butanesulfonamide]	8.15
COc1cccc(-c2nnc(NS(=O)(=O)[C@@H](C)[C@H](OC)c3ncc(Cl)cn3)n2[C@H]2CCCC[C@H]2C)n1 (stereo in doubt) [Example 75.0]	8.52
